# Experimental data from ChEMBL document CHEMBL1201862, “PubChem BioAssay data set” (2004).
# Activity calls are given as the source filed them.
# Assays:
# Mu-type opioid receptor = Mu-type opioid receptor (Homo sapiens, UniProt P35372); format: functional, cell-based;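 also: U2OS cells with beta-arrestin recruitment to OPRM1 by beta-gal complementation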
# [1] = biological target: 5-hydroxytryptamine receptor 2A (Mus musculus, UniProt P35363); format: functional, cell-based;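 also: CHO-K1 cells with tagged receptor and beta-arrestin; agonist potency measured as compound-induced activation of the receptor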
# Aminopeptidase N = biological target: T1, Aminopeptidase N (Plasmodium falciparum FcB1/Columbia, UniProt O96935); experiment: P. falciparum M1AAP inhibitors, biochemical, fluorogenic H-Leu-NHMec substrate, 1536-well (AID 1445); parameters: species or system Plasmodium falciparum 3D7, 3D7
# T1 sequence (O96935 whole entry): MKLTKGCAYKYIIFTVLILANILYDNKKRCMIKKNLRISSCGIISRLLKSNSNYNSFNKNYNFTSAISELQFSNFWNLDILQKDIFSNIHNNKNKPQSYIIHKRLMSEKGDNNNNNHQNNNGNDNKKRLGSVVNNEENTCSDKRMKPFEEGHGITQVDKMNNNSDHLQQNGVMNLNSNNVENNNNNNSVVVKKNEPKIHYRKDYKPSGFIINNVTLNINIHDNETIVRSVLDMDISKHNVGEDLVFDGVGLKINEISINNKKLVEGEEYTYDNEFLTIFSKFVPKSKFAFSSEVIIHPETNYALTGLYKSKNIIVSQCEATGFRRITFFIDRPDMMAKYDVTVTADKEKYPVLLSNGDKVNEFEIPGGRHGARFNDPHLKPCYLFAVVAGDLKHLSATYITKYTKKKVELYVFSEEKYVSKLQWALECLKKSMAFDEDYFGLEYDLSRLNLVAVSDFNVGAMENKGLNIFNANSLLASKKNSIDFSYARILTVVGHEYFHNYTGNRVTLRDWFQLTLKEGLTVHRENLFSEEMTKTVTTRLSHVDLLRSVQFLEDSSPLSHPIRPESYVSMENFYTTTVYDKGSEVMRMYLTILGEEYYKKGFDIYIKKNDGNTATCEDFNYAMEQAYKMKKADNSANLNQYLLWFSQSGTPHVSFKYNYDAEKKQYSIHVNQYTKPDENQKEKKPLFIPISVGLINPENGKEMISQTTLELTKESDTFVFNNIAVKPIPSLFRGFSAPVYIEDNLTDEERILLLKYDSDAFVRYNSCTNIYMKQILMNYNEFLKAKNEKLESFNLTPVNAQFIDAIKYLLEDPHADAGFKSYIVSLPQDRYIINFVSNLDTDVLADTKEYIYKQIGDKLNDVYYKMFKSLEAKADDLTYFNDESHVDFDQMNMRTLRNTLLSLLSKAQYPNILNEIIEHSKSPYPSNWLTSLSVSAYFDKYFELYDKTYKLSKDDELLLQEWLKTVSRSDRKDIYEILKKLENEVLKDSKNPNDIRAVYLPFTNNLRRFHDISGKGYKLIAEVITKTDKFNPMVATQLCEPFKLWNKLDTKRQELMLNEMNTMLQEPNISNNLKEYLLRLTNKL
# Escherichia coli = experiment: microbe, parasite or virus in culture
# [2] = NIH-3T3 fibroblast cytotoxicity, dose response, cytotoxicity control, cell-based, fluorescence, Alamar Blue, secondary assay (AID 2327); format: functional;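 also: NIH-3T3 mouse fibroblasts cultured with fluconazole at 8 µg/mL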
# [3] = C. albicans growth with fluconazole, confirmation, fluorescence, retest (AID 2467); format: functional, cell-based
# [4] = biological target: ATP-dependent molecular chaperone HSP82 (Candida albicans (strain WO-1) (Yeast), UniProt C4YTQ8); experiment: loss of DOC-induced GRE-beta-galactosidase reporter signal, dose response, Hsp90 inhibitor project, S. cerevisiae, luminescence (AID 2400); format: functional, cell-based;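 also: beta-galactosidase luminescence from glucocorticoid response element reporter as proxy for Hsp90 function; inhibitor potency where signal loss means Hsp90 inhibition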
# [5] = Luminescence Cell-Based Dose Retest to Confirm Inhibitors of Cancer Stem Cells. [Related pubchem assays (depositor defined):AID2717, AID2721]; format: functional; conditions: Homo sapiens
# [6] = biological target: T2, Serine/threonine-protein phosphatase (Candida dubliniensis (strain CD36 / CBS 7987 / NCPF 3949 / NRRLY-17841) (Yeast), UniProt B9W6M3); experiment: calcineurin pathway inhibitors in yeast reporter, dose response, S. cerevisiae, CDRE-lacZ, luminescence, secondary (AID 2388); format: functional, cell-based;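 also: yeast reporter cells carrying a calcineurin-responsive lacZ construct stimulated with calcium chloride; luminescent beta-galactosidase reporter signal in whole cells rather than isolated phosphatase activity; potency for inhibition where a drop in reporter signal means calcineurin blockade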
# T2 sequence (B9W6M3 whole entry): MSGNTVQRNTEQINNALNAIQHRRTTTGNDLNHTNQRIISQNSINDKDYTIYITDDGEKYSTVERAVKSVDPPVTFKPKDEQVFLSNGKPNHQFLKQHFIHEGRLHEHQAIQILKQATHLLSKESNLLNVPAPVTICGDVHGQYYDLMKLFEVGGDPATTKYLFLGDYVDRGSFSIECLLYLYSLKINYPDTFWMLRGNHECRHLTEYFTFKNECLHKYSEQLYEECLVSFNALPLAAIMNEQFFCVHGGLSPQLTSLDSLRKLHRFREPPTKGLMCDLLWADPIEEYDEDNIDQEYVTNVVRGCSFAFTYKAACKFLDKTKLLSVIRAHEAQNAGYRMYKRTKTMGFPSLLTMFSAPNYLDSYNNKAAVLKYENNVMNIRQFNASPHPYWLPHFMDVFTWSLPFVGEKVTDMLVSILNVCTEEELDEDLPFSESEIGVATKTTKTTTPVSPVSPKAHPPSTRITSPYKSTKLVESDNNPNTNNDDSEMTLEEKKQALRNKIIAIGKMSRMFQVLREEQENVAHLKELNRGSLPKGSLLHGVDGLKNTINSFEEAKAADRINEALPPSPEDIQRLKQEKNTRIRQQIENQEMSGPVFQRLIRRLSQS
# [7] = growth suppression of beta-catenin-knockout colon cells, dose response, cell-based, HCT116, human colon tumor (AID 1045); format: functional;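 also: HCT116 colon tumor cells with beta catenin knocked out; cells exposed to compound for 60 hours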
# [8] = biological target: T3, Microphthalmia-associated transcription factor (Homo sapiens, UniProt O75030); experiment: TRPM1 promoter luciferase signal decrease, dose response, MITF inhibitor project, cell-based, SK-MEL-5, cherry-picked, set 3 (AID 493073); format: functional
# T3 sequence (O75030 whole entry): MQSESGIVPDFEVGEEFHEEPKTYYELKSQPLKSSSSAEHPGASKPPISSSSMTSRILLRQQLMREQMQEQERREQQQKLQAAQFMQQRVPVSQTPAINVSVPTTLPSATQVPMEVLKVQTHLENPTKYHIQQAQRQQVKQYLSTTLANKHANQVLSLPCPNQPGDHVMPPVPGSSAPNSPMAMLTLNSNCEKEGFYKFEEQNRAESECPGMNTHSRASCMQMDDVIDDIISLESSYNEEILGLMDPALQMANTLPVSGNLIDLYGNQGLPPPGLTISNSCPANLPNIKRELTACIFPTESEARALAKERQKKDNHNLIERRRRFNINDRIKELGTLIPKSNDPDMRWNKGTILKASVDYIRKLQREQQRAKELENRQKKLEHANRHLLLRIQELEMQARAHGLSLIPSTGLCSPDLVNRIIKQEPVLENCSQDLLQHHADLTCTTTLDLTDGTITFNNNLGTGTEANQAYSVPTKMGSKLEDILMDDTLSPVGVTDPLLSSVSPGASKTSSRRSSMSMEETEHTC
# [9] = growth suppression of PTEN-null colon cells, dose response, cell-based, HCT116 PTEN knockout (AID 1047); format: functional;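 also: HCT116 colon tumor cells with PTEN knocked out; cells exposed to compound for 60 hours before readout; potency for loss of cell viability measured by luminescence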
# [10] = biological target: Dual specificity tyrosine-phosphorylation-regulated kinase 1A (Rattus norvegicus, UniProt Q63470); format: biochemical, Homo sapiens
# H4 = experiment: Luminescence Cell-Based Dose Response HTS to Identify Activators of 5'UTR Stem-Loop Driven Prion Protein mRNA Translation in H4 Neuroglioblastoma Cells. [Related pubchem assays: 1829 (Project Summary), 1814 (Primary HTS)]; format: functional; conditions: Homo sapiens
# [11] = Luminescence Cell-Based Dose Response HTS to Identify Activators of Luciferase Translation or Activity in H4 […] Cells. [Related pubchem assays: 1829 (Project Summary), 1814 (Primary HTS)]; format: functional
# HeLa = experiment: HeLa cell cytotoxicity, dose response, cytotoxicity control for MITF activator project, CellTiter-Glo luminescence, cherry-pick samples (AID 540259); format: functional, cell-based; conditions: Homo sapiens
# [12] = inhibitors of intracellular T. cruzi replication, confirmation, NIH3T3 host cells, beta-gal luminescence (AID 2044); format: functional, cell-based;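 also: intracellular parasites grown in NIH/3T3 mouse fibroblasts as host cells; luminescent beta-galactosidase reporter signal from transgenic T. cruzi replicating inside host cells; inhibitors lower the luminescence signal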
# [13] = biological target: T4, Heat shock factor protein 1 (Mus musculus, UniProt P38532); experiment: inhibition of MG132-induced HSE-luciferase signal, confirmation, cell-based, NIH3T3, luminescence, dose retest (AID 2382); format: functional;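 also: NIH3T3 fibroblasts with HSF1-driven luciferase reporter stressed by proteasome inhibitor MG132; luminescence from HSF1-driven luciferase expression after 8 hours of MG132 stress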
# T4 sequence (P38532 whole entry): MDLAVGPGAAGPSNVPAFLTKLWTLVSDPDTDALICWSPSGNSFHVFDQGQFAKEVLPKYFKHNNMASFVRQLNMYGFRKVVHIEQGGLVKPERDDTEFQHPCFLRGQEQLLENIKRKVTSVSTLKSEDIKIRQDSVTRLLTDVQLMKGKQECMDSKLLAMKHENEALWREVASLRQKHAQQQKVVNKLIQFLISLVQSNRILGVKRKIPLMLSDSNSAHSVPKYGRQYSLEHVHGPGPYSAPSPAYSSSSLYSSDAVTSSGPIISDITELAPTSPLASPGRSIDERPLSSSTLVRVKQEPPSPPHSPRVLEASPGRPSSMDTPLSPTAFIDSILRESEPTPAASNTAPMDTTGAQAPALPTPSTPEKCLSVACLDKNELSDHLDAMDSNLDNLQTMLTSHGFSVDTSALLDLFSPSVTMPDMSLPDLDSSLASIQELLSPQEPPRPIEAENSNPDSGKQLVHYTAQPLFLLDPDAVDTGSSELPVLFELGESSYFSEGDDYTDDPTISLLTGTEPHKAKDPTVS
# [14] = cytotoxicity toward NIH3T3 fibroblasts, dose response, counter-screen, cell-based, ATP luminescence, mouse fibroblasts (AID 2010); format: functional;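 also: cells exposed to compound for about 90 hours before reading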
# [15] = biological target: T5, Oxysterols receptor LXR-beta (Homo sapiens, UniProt P55055); format: functional, cell-based;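 also: Cell-based luminescence dose-response assay of agonist activity at LXR, run as a confirmatory counterscreen to a daf-12 agonist screen; HEK293 cells with Gal4-LXR fusion and GAL4-driven luciferase reporter; agonist potency from rising luciferase signal of a Gal4-LXR reporter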
# T5 sequence (P55055 whole entry): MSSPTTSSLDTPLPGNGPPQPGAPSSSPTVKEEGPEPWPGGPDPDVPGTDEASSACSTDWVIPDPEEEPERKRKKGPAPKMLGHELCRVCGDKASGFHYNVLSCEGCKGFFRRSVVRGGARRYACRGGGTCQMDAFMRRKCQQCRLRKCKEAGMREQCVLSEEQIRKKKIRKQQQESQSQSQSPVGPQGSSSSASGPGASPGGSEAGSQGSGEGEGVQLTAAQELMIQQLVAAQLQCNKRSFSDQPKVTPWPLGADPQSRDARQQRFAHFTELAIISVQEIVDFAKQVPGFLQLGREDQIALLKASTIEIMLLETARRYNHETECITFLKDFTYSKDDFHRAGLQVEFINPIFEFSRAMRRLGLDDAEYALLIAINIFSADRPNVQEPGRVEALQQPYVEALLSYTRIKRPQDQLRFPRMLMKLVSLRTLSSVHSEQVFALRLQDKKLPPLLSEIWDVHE
# 5-hydroxytryptamine receptor 2A, sequence (P35363 whole entry): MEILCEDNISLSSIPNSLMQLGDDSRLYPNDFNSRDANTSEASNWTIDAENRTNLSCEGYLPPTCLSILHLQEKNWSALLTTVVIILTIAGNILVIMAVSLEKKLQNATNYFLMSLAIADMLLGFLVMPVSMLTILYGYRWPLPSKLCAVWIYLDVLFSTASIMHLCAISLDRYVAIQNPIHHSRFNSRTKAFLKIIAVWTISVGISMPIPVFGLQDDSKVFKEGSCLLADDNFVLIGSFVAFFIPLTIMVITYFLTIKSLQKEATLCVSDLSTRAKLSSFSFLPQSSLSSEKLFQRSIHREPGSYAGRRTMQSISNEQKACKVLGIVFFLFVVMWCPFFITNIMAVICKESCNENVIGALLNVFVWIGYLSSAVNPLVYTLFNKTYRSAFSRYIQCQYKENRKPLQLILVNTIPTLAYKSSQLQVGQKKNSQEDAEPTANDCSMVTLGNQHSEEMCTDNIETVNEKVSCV
# Mu-type opioid receptor, sequence (P35372 whole entry): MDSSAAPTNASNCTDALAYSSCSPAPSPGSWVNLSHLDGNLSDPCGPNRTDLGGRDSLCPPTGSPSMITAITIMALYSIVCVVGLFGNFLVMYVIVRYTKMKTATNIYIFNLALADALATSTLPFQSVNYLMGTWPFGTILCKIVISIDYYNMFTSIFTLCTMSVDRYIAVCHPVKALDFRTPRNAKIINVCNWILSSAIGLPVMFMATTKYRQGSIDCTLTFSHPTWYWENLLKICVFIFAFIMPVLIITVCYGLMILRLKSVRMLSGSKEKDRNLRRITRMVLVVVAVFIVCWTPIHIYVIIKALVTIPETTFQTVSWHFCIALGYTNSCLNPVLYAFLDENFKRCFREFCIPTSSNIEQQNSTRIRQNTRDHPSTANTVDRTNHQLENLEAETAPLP
# ATP-dependent molecular chaperone HSP82, sequence (C4YTQ8 whole entry): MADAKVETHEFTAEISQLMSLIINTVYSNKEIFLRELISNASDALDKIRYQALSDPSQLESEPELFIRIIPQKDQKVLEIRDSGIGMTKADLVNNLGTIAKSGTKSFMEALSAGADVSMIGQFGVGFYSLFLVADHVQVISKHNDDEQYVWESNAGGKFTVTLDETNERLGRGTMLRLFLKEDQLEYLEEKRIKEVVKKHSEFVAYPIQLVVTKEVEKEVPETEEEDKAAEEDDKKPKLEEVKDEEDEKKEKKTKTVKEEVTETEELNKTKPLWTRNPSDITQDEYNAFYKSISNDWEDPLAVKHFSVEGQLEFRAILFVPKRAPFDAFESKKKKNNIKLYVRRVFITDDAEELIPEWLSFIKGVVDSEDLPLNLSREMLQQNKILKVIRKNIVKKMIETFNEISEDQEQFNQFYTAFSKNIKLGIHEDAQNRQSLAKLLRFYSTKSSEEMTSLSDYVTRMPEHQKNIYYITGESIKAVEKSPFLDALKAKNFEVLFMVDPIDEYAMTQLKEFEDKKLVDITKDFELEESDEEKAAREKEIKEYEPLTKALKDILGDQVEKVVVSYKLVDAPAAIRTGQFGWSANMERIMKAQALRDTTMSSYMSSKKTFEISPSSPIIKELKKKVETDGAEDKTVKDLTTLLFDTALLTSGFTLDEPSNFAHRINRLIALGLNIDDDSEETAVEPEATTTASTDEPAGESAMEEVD
compound,measurement,setting,value
Oc1ccc(C2=CCNCC2)cc1O,EC50,Mu-type opioid receptor,92.4 µM (inactive)
same,EC50,[1],0.0242 µM (active)
NS(=O)(=O)c1ccc(CCNC(=O)Cc2ccc(S(=O)(=O)N3CCCC3)s2)cc1,IC50,Aminopeptidase N,8.91 µM (active)
same,AC50,Escherichia coli,39.6 µM (active)
O=[N+]([O-])c1cccc(-c2cc(-c3cc(Br)ccc3O)n[nH]2)c1,EC50,[2],19 µM (inconclusive)
same,EC50,[3],0.954 µM (active)
same,EC50,[4],11.9 µM (active)
same,AC50,[5],2.03 µM (active)
same,EC50,[6],> 180 µM (inactive)
CCOc1ccc2nc(C)cc(Nc3cccc([N+](=O)[O-])c3)c2c1,EC50,[7],7.34 µM (active)
same,AC50,[8],17.8 µM (active)
same,EC50,[9],5.88 µM (active)
COc1cc(/C=C2/C(=N)N3C(SC)=NSC3=NC2=O)ccc1OC(=O)c1ccco1,AC50,[10],5.64 µM (active)
CC(C)c1ccc(/C=N/NC(=O)C2CCCC2)cc1,EC50,H4,2.72 µM (active)
same,EC50,[11],8.02 µM (active)
same,AC50,HeLa,132 µM (active)
Nc1c(C(=O)O)ccc2c1C(=O)c1ccccc1C2=O,AC50,[10],1.28 µM (active)
C(=N\NC1=Nc2cccc3cccc1c23)/c1ccccn1,EC50,[2],2.55 µM (inconclusive)
same,EC50,[12],0.619 µM (active)
same,EC50,[3],1.05 µM (active)
same,EC50,[13],3.2 µM (active)
same,EC50,[14],> 60 µM (not active)
same,EC50,cells,> 67.5 µM (inactive)
same,AC50,[10],9.7 µM (active)
same,EC50,[15],> 67.5 µM (inactive)
